Columns and labels:
cornflower (CENCY) [1] = assay: Postemergence greenhouse trial, % visual injury on cornflower; assay type: in vivo, Centaurea cyanus or Cyanus segetum; conditions: CENCY; for % visual injury, Ob: CQC-m 0 g/ha
nutsedge (CYPES) = assay: Postemergence greenhouse trial, % visual injury on nutsedge; assay type: in vivo, Cyperus esculentus; conditions: alone, 35 g/ha
Procedure: (§1) Seeds of the desired test plant species were planted in Sun Gro MetroMix® 306 planting mixture, which typically has a pH of 6.0 to 6.8 and an organic matter content of about 30 percent, in plastic pots with a surface area of 103.2 square centimeters (cm^2). When required to ensure good germination and healthy plants, a fungicide treatment and/or other chemical or physical treatment was applied. The plants were grown for 7-36 days (d) in a greenhouse with an approximate 14-hour (h) photoperiod which was maintained at about 23° C. during the day and 22° C. during the night. Nutrients and water were added on a regular basis and supplemental lighting was provided with overhead metal halide 1000-Watt lamps as necessary. The plants were employed for testing when they reached the second or third true leaf stage.
(§2) Weighed amounts of technical material were dissolved in a volume of 97:3 volume per volume (v/v) acetone/dimethyl sulfoxide (DMSO) to stock solutions. […] The concentrated stock solutions were diluted with an aqueous mixture of 1.5% v/v of Agri-dex crop oil concentrate to provide the appropriate application rates. Compound requirements are based upon a 12 milliliter (mL) application volume at a rate of 187 liters per hectare (L/ha). Stocks solutions of the safeners were prepared following the same procedure. Spray solutions of the safeners and experimental compound mixtures were prepared by adding the stock solutions to the appropriate amount of dilution solution to form a 12 mL spray solution in two-way combinations. Formulated compounds were applied to the plant material with an overhead Mandel track sprayer equipped with 8002E nozzles calibrated to deliver 187 L/ha over an application area of 0.503 square meters (m^2) at a spray height of 18 inches (43 centimeters (cm)) above average plant canopy. Control plants were sprayed in the same manner with the solvent blank. All herbicide application (component a) rates are in g ae/ha and all safener (component b) rates are in g ai/ha.
(§3) The treated plants and control plants were placed in a greenhouse as described above and watered by sub-irrigation to prevent wash-off of the test compounds. After 20-22 d, the condition of the test plants as compared with that of the control plants was determined visually and scored on a scale of 0 to 100 percent where 0 corresponds to no injury and 100 corresponds to complete kill. The condition of the test plants was compared with that of the control plants as determined visually and scored on a scale of 0 to 100 percent, where 0 corresponds to no injury and 100 corresponds to complete kill. Colby's equation was used to determine the herbicidal effects expected from the mixtures.
The safener cloquintocet-mexyl was combined with compound 1, compound 2, compound 4, compound 5, and compound 6, and applied to corn/maize (ZEAMX) and spring wheat (TRZAS) and the phytotoxicity of the herbicidal compositions was measured. In addition, the efficacy of the herbicidal composition on velvetleaf (ABUTH, Abutilon theophrasti), pigweed (AMARE, Amaranthus retroflexus), winter rape (BRSNW, Brassica napus), lambsquarters (CHEAL, Chenopodium album), thistle (CIRAR, Cirsium arvense), nutsedge (CYPES, Cyperus esculentus), poinsettia (EPHHL, Euphorbia heterophylla), wild buckwheat (POLCO, Polygonum convolvulus), giant foxtail (SETFA, Setaria faberi), and chickweed (STEME, Stellaria media) was evaluated. […]
The safener cloquintocet-acid and a number of agriculturally acceptable esters and salts (-mexyl, -dimethylammonium salt and -triethylammonium salt) were combined in varying ratios with compound 1 and applied to spring wheat (TRZAS), winter wheat (TRZAW), and spring barley (HORVS), and the phytotoxicity of the herbicidal compositions was measured. […]

wild buckwheat (POLCO) = assay: Postemergence greenhouse trial, % visual injury on wild buckwheat; assay type: in vivo, Polygonum convolvulus; conditions: for % visual injury, observed (Ob): POLCO
Procedure: as §1, §2, §3
The safener cloquintocet-mexyl was combined with compound 1, compound 2, compound 4, compound 5, and compound 6, and applied to corn/maize (ZEAMX) and spring wheat (TRZAS) and the phytotoxicity of the herbicidal compositions was measured. In addition, the efficacy of the herbicidal composition on velvetleaf (ABUTH, Abutilon theophrasti), pigweed (AMARE, Amaranthus retroflexus), winter rape (BRSNW, Brassica napus), lambsquarters (CHEAL, Chenopodium album), thistle (CIRAR, Cirsium arvense), nutsedge (CYPES, Cyperus esculentus), poinsettia (EPHHL, Euphorbia heterophylla), wild buckwheat (POLCO, Polygonum convolvulus), giant foxtail (SETFA, Setaria faberi), and chickweed (STEME, Stellaria media) was evaluated.
(§4) The safener cloquintocet-mexyl was combined with compound 1, compound 2, compound 3, compound 7, compound 8, compound 9, compound 10, compound 11, compound 12, compound 13, compound 14, compound 15, compound 16, compound 17, compound 18, compound 19, and compound 20, and applied to spring wheat (TRZAS), winter wheat (TRZAW), and spring barley (HORVS) and the phytotoxicity of the herbicidal compositions was measured. […]

cleavers (GALAP) = assay: Postemergence greenhouse trial, % visual injury on cleavers; assay type: in vivo, Galium aparine
Procedure: as §1, §2, §3, §4

shepherd's purse (CAPBP) = assay: Postemergence greenhouse trial, % visual injury on shepherd's purse; assay type: in vivo, Capsella bursa-pastoris
[2] = test system: purple deadnettle (LAMPU); assay: Postemergence greenhouse trial, % visual injury on purple deadnettle; assay type: in vivo, Lamium purpureum; conditions: LAMPU
Procedure: as §1, §2
as §3, with “mixtures. […]” for “mixtures.”

cornflower (CENCY) [3] = assay: Postemergence greenhouse trial, % visual injury on cornflower; assay type: in vivo, Centaurea cyanus or Cyanus segetum; conditions: CENCY, CQC-m 0
Procedure: as §1, §2, §3, §4

[4] = compound 2 4.380 + CQC-m 0 g/ha
[5] = compound 4.375 g/ha, CQC-m 0 g/ha
[6] = compound 8.75 g/ha, CQC-m 0 g/ha
[7] = compound 17.5 g/ha, CQC-m 0 g/ha

Q: What does the source list for `Nc1c(F)c(-c2ccc3cc[nH]c3c2F)nc(C(=O)OCc2ccccc2)c1Cl` [compound 2]?
A: % visual injury, observed (Ob) (cornflower (CENCY) [1]; [4]): 100%; % visual injury, observed (Ob) (cornflower (CENCY) [1]; compound 2 8.75 + CQC-m 0 g/ha): 100%; % visual injury, observed (Ob) (cornflower (CENCY) [1]; compound 2 17.5 + CQC-m 0 g/ha): 100%; % visual injury, observed (Ob) (cornflower (CENCY) [1]; compound 2 35 + CQC-m 0 g/ha): 100%; % visual injury, observed (Ob) (cornflower (CENCY) [1]; compound 2 70 + CQC-m 0 g/ha): 100%; % visual injury, Ob (nutsedge (CYPES)): 30%; % visual injury, Ob (wild buckwheat (POLCO); alone, 35 g/ha): 100%; % visual injury, observed (Ob) (cleavers (GALAP); [4]): 20%; % visual injury, observed (Ob) (cleavers (GALAP); compound 2 8.75 + CQC-m 0 g/ha): 30%; % visual injury, observed (Ob) (cleavers (GALAP); compound 2 17.5 + CQC-m 0 g/ha): 93%; % visual injury, observed (Ob) (cleavers (GALAP); compound 2 35 + CQC-m 0 g/ha): 85%; % visual injury, observed (Ob) (cleavers (GALAP); compound 2 70 + CQC-m 0 g/ha): 97%; % visual injury, observed (Ob) (shepherd's purse (CAPBP); [4]): 20%; % visual injury, observed (Ob) (shepherd's purse (CAPBP); compound 2 8.75 + CQC-m 0 g/ha): 30%; % visual injury, observed (Ob) (shepherd's purse (CAPBP); compound 2 17.5 + CQC-m 0 g/ha): 100%; % visual injury, observed (Ob) (shepherd's purse (CAPBP); compound 2 35 + CQC-m 0 g/ha): 100%; % visual injury, observed (Ob) (shepherd's purse (CAPBP); compound 2 70 + CQC-m 0 g/ha): 100%; % visual injury, observed (Ob) [2, 4]: 85%; % visual injury, observed (Ob) ([2]; compound 2 8.75 + CQC-m 0 g/ha): 93%; % visual injury, observed (Ob) ([2]; compound 2 17.5 + CQC-m 0 g/ha): 95%; % visual injury, observed (Ob) ([2]; compound 2 35 + CQC-m 0 g/ha): 100%; % visual injury, observed (Ob) ([2]; compound 2 70 + CQC-m 0 g/ha): 100%

Q: Which results are given for `COC(=O)c1nc(-c2ccc3cc[nH]c3c2F)c(F)c(N)c1Cl` [compound 8]?
A: % visual injury, observed (Ob) (wild buckwheat (POLCO); compound 8 4.380 + CQC-m 0 g/ha): 85%; % visual injury, observed (Ob) (wild buckwheat (POLCO); compound 8 8.75 + CQC-m 0 g/ha): 97%; % visual injury, observed (Ob) (wild buckwheat (POLCO); compound 8 17.5 + CQC-m 0 g/ha): 93%; % visual injury, observed (Ob) (wild buckwheat (POLCO); compound 8 35 + CQC-m 0 g/ha): 100%; % visual injury, observed (Ob) (wild buckwheat (POLCO); compound 8 70 + CQC-m 0 g/ha): 100%

Q: `CCCCOC(=O)c1nc(-c2ccc3cc[nH]c3c2F)c(F)c(N)c1Cl` [compound 9] was tested. Which “% visual injury, Ob” value ([2]; compound 4.380 g/ha, CQC-m 0) did it give?
A: 83%

Q: What about the “% visual injury, Ob” value ([2]; compound 8.75 g/ha, CQC-m 0) of the same compound?
A: 90%

Q: And the “% visual injury, Ob” value ([2]; compound 17.5 g/ha, CQC-m 0)?
A: 100%

Q: And the “% visual injury, Ob” value ([2]; compound 35 g/ha, CQC-m 0)?
A: 100%

Q: What about the “% visual injury, Ob” value ([2]; compound 70 g/ha, CQC-m 0) of the same compound?
A: 100%

Q: Which results are given for `CO/C=N/c1c(F)c(-c2ccc3cc[nH]c3c2F)nc(C(=O)OC)c1Cl` [compound 10]?
A: % visual injury, Ob (cornflower (CENCY) [3]; compound 4.380 g/ha): 100%; % visual injury, Ob (cornflower (CENCY) [3]; compound 8.75 g/ha): 100%; % visual injury, Ob (cornflower (CENCY) [3]; compound 17.5 g/ha): 100%; % visual injury, Ob (cornflower (CENCY) [3]; compound 35 g/ha): 100%; % visual injury, Ob (cornflower (CENCY) [3]; compound 70 g/ha): 100%; % visual injury, Ob (shepherd's purse (CAPBP); compound 8.75 g/ha, CQC-m 0): 60%; % visual injury, Ob (shepherd's purse (CAPBP); compound 35 g/ha, CQC-m 0): 100%

Q: For `COc1c(C(=O)O)nc(-c2ccc3cc[nH]c3c2F)c(F)c1N` [compound 13], which “% visual injury, Ob” value (cornflower (CENCY) [1]; compound 4.375 g/ha) is on record?
A: 100%

Q: What about the “% visual injury, Ob” value (cornflower (CENCY) [1]; compound 8.75 g/ha) of the same compound?
A: 100%

Q: And the “% visual injury, Ob” value (cornflower (CENCY) [1]; compound 17.5 g/ha)?
A: 100%

Q: And the “% visual injury, Ob” value (cornflower (CENCY) [1]; compound 35 g/ha)?
A: 100%

Q: And the “% visual injury, Ob” value (cornflower (CENCY) [1]; compound 70 g/ha)?
A: 100%

Q: What about the “% visual injury, Ob” value (cleavers (GALAP); [5]) of the same compound?
A: 40%

Q: And the “% visual injury, Ob” value (cleavers (GALAP); [6])?
A: 70%

Q: What about the “% visual injury, Ob” value (cleavers (GALAP); [7]) of the same compound?
A: 80%

Q: What about the “% visual injury, Ob” value (cleavers (GALAP); compound 35 g/ha, CQC-m 0 g/ha) of the same compound?
A: 100%

Q: What about the “% visual injury, Ob” value (cleavers (GALAP); compound 70 g/ha, CQC-m 0 g/ha) of the same compound?
A: 100%

Q: What about the “% visual injury, Ob” value (shepherd's purse (CAPBP); [5]) of the same compound?
A: 85%

Q: What about the “% visual injury, Ob” value (shepherd's purse (CAPBP); [6]) of the same compound?
A: 100%

Q: And the “% visual injury, Ob” value (shepherd's purse (CAPBP); [7])?
A: 100%

Q: And the “% visual injury, Ob” value (shepherd's purse (CAPBP); compound 35 g/ha, CQC-m 0 g/ha)?
A: 100%

Q: And the “% visual injury, Ob” value (shepherd's purse (CAPBP); compound 70 g/ha, CQC-m 0 g/ha)?
A: 100%

Q: With `Nc1cc(-c2ccc3cc[nH]c3c2F)nc(C(=O)O)c1Cl` [compound 15] as the compound, how does the “% visual injury, Ob” value (cleavers (GALAP); [5]) read?
A: 85%

Q: And the “% visual injury, Ob” value (cleavers (GALAP); [6])?
A: 85%

Q: What about the “% visual injury, Ob” value (cleavers (GALAP); [7]) of the same compound?
A: 93%

Q: And the “% visual injury, Ob” value (cleavers (GALAP); compound 35 g/ha, CQC-m 0 g/ha)?
A: 93%

Q: And the “% visual injury, Ob” value (cleavers (GALAP); compound 70 g/ha, CQC-m 0 g/ha)?
A: 90%

Q: And the “% visual injury, Ob” value [2, 5]?
A: 93%

Q: And the “% visual injury, Ob” value [2, 6]?
A: 95%

Q: And the “% visual injury, Ob” value [2, 7]?
A: 93%

Q: What about the “% visual injury, Ob” value ([2]; compound 35 g/ha, CQC-m 0 g/ha) of the same compound?
A: 93%

Q: What about the “% visual injury, Ob” value ([2]; compound 70 g/ha, CQC-m 0 g/ha) of the same compound?
A: 95%

Q: `Nc1c(F)c(-c2ccc3scnc3c2)nc(C(=O)O)c1Cl` [compound 17] was tested. Which “% visual injury, Ob” value (cleavers (GALAP); 4.375 g/ha, applied alone) did it give?
A: 50%

Q: And the “% visual injury, Ob” value (cleavers (GALAP); 8.75 g/ha, applied alone)?
A: 60%

Q: What about the “% visual injury, Ob” value (cleavers (GALAP); 17.5 g/ha, applied alone) of the same compound?
A: 70%

Q: What about the “% visual injury, Ob” value (cleavers (GALAP); 35 g/ha, applied alone) of the same compound?
A: 90%

Q: What about the “% visual injury, Ob” value (cleavers (GALAP); 70 g/ha, applied alone) of the same compound?
A: 90%
